According to PubChem BioAssay AID270 (DTP/NCI, 2004):
Several values for one entry are separate records, joined by “and”; a condition that tells them apart may be missing. Equal values may be shown once. Inconclusive results are not listed.

Tested on: BDF1 mice, s.c. Lewis lung carcinoma, T/C %
Assay: NCI In Vivo Anticancer Drug Screen. Data for tumor model Lewis Lung Carcinoma (subcutaneous) in B6D2F1 (BDF1) mice
How it was run: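 Readout: survival or tumor size, expressed as treated (T) over vehicle control (C). Transplantable tumor implanted in mice; compound given to the treated group.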

O=P1(N(CCCl)CCCl)NCCCO1 (stereo not given)
T/C (endpoint: median survival time, dose: 50.0 mg/kg/injection, schedule: Q01DX005 (ip), vehicle: saline, higher = longer survival): 158 % of control | T/C (endpoint: median survival time, dose: 50.0 mg/kg/injection, schedule: Q04DX003 (sc), vehicle: saline, higher = longer survival): 208 % of control and 210 % of control | T/C (endpoint: median survival time, dose: 66.7 mg/kg/injection, schedule: Q04DX003 (ip), vehicle: saline, higher = longer survival): 167 % of control and 233 % of control | T/C (endpoint: median survival time, dose: 67.0 mg/kg/injection, schedule: Q01DX005 (ip), vehicle: saline, higher = longer survival): 220 % of control | T/C (endpoint: median survival time, dose: 70.0 mg/kg/injection, schedule: Q01DX001 (ip), vehicle: saline, higher = longer survival): 108 % of control and 112 % of control | T/C (endpoint: median survival time, dose: 72.0 mg/kg/injection, schedule: Q01DX001 (ip), vehicle: saline, higher = longer survival): 117 % of control | T/C (endpoint: median survival time, dose: 80.0 mg/kg/injection, schedule: Q01DX009 (ip), vehicle: saline, higher = longer survival): 100 % of control | T/C (endpoint: median survival time, dose: 100.0 mg/kg/injection, schedule: Q01DX001 (ip), vehicle: water, higher = longer survival): 190 % of control | T/C (endpoint: median survival time, dose: 100.0 mg/kg/injection, schedule: Q01DX005 (ip), vehicle: saline, higher = longer survival): 207 % of control | T/C (endpoint: median survival time, dose: 100.0 mg/kg/injection, schedule: Q04DX003 (ip), vehicle: saline, higher = longer survival): 192 % of control and 233 % of control | T/C (endpoint: median survival time, dose: 100.0 mg/kg/injection, schedule: Q08DX002 (ip), vehicle: saline, higher = longer survival): 208 % of control | T/C (endpoint: median survival time, dose: 100.0 mg/kg/injection, schedule: Q11DX002 (ip), vehicle: saline, higher = longer survival): 163 % of control | T/C (endpoint: median survival time, dose: 150.0 mg/kg/injection, schedule: Q04DX003 (ip), vehicle: saline, higher = longer survival): 233 % of control | T/C (endpoint: median survival time, dose: 150.0 mg/kg/injection, schedule: Q07DX002 (ip), vehicle: saline, higher = longer survival): 233 % of control | T/C (endpoint: median survival time, dose: 150.0 mg/kg/injection, schedule: Q07DX004 (ip), vehicle: saline, higher = longer survival): 221 % of control | T/C (endpoint: median survival time, dose: 150.0 mg/kg/injection, schedule: Q11DX002 (ip), vehicle: saline, higher = longer survival): 150 % of control and 165 % of control | T/C (endpoint: median survival time, dose: 200.0 mg/kg/injection, schedule: Q04DX003 (sc), vehicle: saline, higher = longer survival): 85 % of control | T/C (endpoint: median survival time, dose: 225.0 mg/kg/injection, schedule: Q01DX001 (ip), vehicle: saline, higher = longer survival): 153 % of control | T/C (endpoint: median survival time, dose: 225.0 mg/kg/injection, schedule: Q07DX002 (ip), vehicle: saline, higher = longer survival): 173 % of control | T/C (endpoint: median survival time, dose: 225.0 mg/kg/injection, schedule: Q09DX002 (ip), vehicle: saline, higher = longer survival): 183 % of control | T/C (endpoint: median survival time, dose: 225.0 mg/kg/injection, schedule: Q11DX002 (ip), vehicle: saline, higher = longer survival): 166 % of control and 189 % of control | T/C (endpoint: median survival time, dose: 230.0 mg/kg/injection, schedule: Q01DX001 (ip), vehicle: saline, higher = longer survival): 154 % of control | T/C (endpoint: median survival time, dose: 300.0 mg/kg/injection, schedule: Q07DX002 (ip), vehicle: saline, higher = longer survival): 173 % of control | T/C (endpoint: median survival time, dose: 300.0 mg/kg/injection, schedule: Q08DX002 (ip), vehicle: saline, higher = longer survival): 100 % of control | T/C (endpoint: median survival time, dose: 333.0 mg/kg/injection, schedule: Q01DX001 (ip), vehicle: saline, higher = longer survival): 157 % of control and 193 % of control | T/C (endpoint: median survival time, dose: 500.0 mg/kg/injection, schedule: Q01DX001 (ip), vehicle: saline, higher = longer survival): 72 % of control | T/C (endpoint: median survival time, dose: 556.0 mg/kg/injection, schedule: Q01DX001 (ip), vehicle: saline, higher = longer survival): 47 % of control | T/C (endpoint: median tumor weight (est.), dose: 25.0 mg/kg/injection, schedule: Q01DX009 (ip), vehicle: saline, higher = larger tumour): 50 % of control | T/C (endpoint: median tumor weight (est.), dose: 50.0 mg/kg/injection, schedule: Q01DX009 (ip), vehicle: saline, higher = larger tumour): 11 % of control and 19 % of control | T/C (endpoint: median tumor weight (est.), dose: 75.0 mg/kg/injection, schedule: Q01DX001 (ip), vehicle: saline, higher = larger tumour): 76 % of control | T/C (endpoint: median tumor weight (est.), dose: 103.0 mg/kg/injection, schedule: Q01DX001 (ip), vehicle: saline, higher = larger tumour): 38 % of control | T/C (endpoint: median tumor weight (est.), dose: 150.0 mg/kg/injection, schedule: Q01DX001 (ip), vehicle: saline, higher = larger tumour): 34 % of control | T/C (endpoint: median tumor weight (est.), dose: 209.0 mg/kg/injection, schedule: Q01DX001 (ip), vehicle: saline, higher = larger tumour): 16 % of control | T/C (endpoint: median tumor weight (est.), dose: 300.0 mg/kg/injection, schedule: Q01DX001 (ip), vehicle: saline, higher = larger tumour): 2 % of control | T/C (endpoint: median tumor weight (est.), dose: 312.0 mg/kg/injection, schedule: Q01DX001 (ip), vehicle: saline, higher = larger tumour): 7 % of control
